Results reported in patent publication US12280090B2, “Antimicrobial peptides” (priority 2018, dated 2025).
≈ marks a conversion by molar mass, not a printed value. Where two headings read alike, the source gives them in different places. Bridge positions count the residues as written; N and C are the ends. Ends that are not written are not given here. Peptide text beside a SMILES is read from it.

Assays:
Assay type in all cases: cell-based
[1] = test system: Escherichia coli: ATCC 9723H
Experimental: (§1) Microtiter broth dilution assays. HP2, HP3, and HP5 peptides are comprised of novel sequences that have not yet been described in the AMP literature. A common method for establishing antimicrobial activity of peptides is to perform microtiter broth assays. Microtiter broth dilution methods were implemented for determination of the minimum inhibitory concentration (MIC) and minimum bactericidal concentration (MBC). HP3 and HP5 were tested in addition to Ranatuerin-1/HP4 peptide as a positive control. HP2 could not be tested because multiple peptide synthesis attempts failed. The human cathelicidin, LL-37^30 was used as an additional positive control, and an unrelated similarly sized cationic peptide from the T. pallidum protein Tp0751 was used as a negative control. The potential AMPs were tested against bacteria representative of all three types of known cell envelope (Gram-positive, negative, and the complex and unique mycobacterial cell wall/envelope), given that a major mechanism used by AMPs is cell wall/membrane targeting.
(§2) Microtiter broth dilution assays. To test for antimicrobial activity, HP3, HP4/Ranatuerin-1, and HP5, peptides were synthesized by GenScript (Piscataway, New Jersey, USA). HP2 was not tested because the service provider was unable to synthesize this peptide despite multiple attempts. An unrelated, similarly-sized peptide from the Treponema pallidum protein Tp0751^55 was used as a negative control and the human cathelicidin, LL-37^30, was included as a positive control. Peptides were dissolved in filter-sterilized ultrapure water and tested for sterility by plating on non-selective agar plates followed by a 48 h incubation at 37° C. Two-fold serial dilutions of each peptide were prepared to obtain a series corresponding to ten times the required testing concentrations (2560, 1280, 640, 320, 160, 80, 40, 20, 10, and 5 μg/mL)^29.
(§3) Microtiter broth dilution methods were implemented for determination of the minimum inhibitory concentration (MIC) and minimum bactericidal concentration (MBC) of the four putative AMPs and the negative control peptide using procedures adapted from the R.E.W. Hancock Laboratory for cationic AMPs^29 and the CLSI methods for dilution antimicrobial susceptibility tests^56.
(§4) To assess antimicrobial activity across a diverse range of bacterial species, colonies were cultured overnight on Mueller Hinton agar plates (MHA; +5% sheep blood for S. pyogenes)^56 from frozen glycerol stock. Bacteria tested include Gram-negative rods (Escherichia coli: ATCC 9723H; Pseudomonas aeruginosa: ATCC 10148), Gram-positive cocci (Staphylococcus aureus: ATCC 6538P; Streptococcus pyogenes: unknown strain, hospital isolate), and Mycobacterium smegmatis (MC^2155; classified as neither Gram-positive nor Gram-negative). Bacterial suspensions were prepared by placing 3-5 morphologically similar colonies from the grown plate into sterile glass culture tubes containing 2 mL of Mueller Hinton Broth (MHB; +5% lysed horse blood for S. pyogenes) 56. Microbial inoculums from bacterial suspensions were prepared through a spectrophotometric adjustment of turbidity to 0.08-0.1 at 600 nm to achieve a turbidity equivalent to that of a 0.5 McFarland standard (1-2×10^8 CFU/mL)^29. The standardized bacterial inoculums were then diluted in MHB to obtain final cell densities of approximately […].
(§5) Ninety-six-well microtiter plates (Fisher Cat. No. CS003790; Nepean, Ontario, Canada) were prepared with 100 μL of E. coli, P. aeruginosa, S. aureus, S. pyogenes, or M. smegmatis bacterial suspension (5×10^5 CFU/mL) dispensed into each well of columns 1 through 11. Eleven microliters of the 10×AMP dilution series for all four peptides were added to each well from column 1 (2560 μg/mL) to column 10 (5 μg/mL) in all plates. Column 11 functioned as a positive control for bacterial growth in the absence of AMPs. Column 12 in each plate contained 100 μL of MHB as a sterility control (+5% lysed horse blood for S. pyogenes)^56. […]

[2] = test system: Mycobacterium smegmatis (MC^2155)
Experimental: as §1, §2, §3, §4, §5

[3] = test system: Pseudomonas aeruginosa: ATCC 10148
Experimental: as §1, §2, §3, §4, §5

[4] = test system: Staphylococcus aureus: ATCC 6538P
Experimental: as §1, §2, §3, §4, §5

[5] = test system: Streptococcus pyogenes: unknown strain, hospital isolate; conditions: for inhibitory or bacteriostatic activity: S. pyogenes
Experimental: as §1, §2, §3, §4, §5

[6] = unknown strain, hospital isolate

Row | MIC ([1]; ATCC 9723) | MIC ([3]; ATCC 10148) [µg/mL] | MIC ([4]; ATCC 6538) | MIC [5, 6] [µg/mL] | MIC ([2]; Mycobacterium (MC^2155)) [µg/mL] | Molecule | MBC ([1]; ATCC 9723) [µg/mL] | MBC ([2]; Mycobacterium (MC^2155)) [µg/mL] | MBC ([3]; ATCC 10148) [µg/mL] | MBC ([4]; ATCC 6538) [µg/mL] | MBC [5, 6] [µg/mL] | further results
1 | >256 µg/mL | >256 | >256 µg/mL | >256 | – | FYFPVSRKFGGK [Peptide P1_CCH, FYFPVSRKFGGK] | – | – | – | – | – | MBC ([1]; E. coli (Table 5)): > 256 µg/mL; MBC ([2]; M. smegmatis (Table 5)): > 256 µg/mL; MBC ([3]; P. aeruginosa (Table 5)): > 256 µg/mL; MBC ([4]; S. aureus (Table 5)): > 256 µg/mL; MBC ([5]; S. pyogenes (Table 5)): > 256 µg/mL
2 | >256 µg/mL | >256 | >256 µg/mL | >256 | >256 | SNRDFFMVNIFGLCGPFGIMERKRR [Peptide P16_CCH] | – | – | – | – | – | –
3 | >256 µg/mL | >256 | >256 µg/mL | >256 | >256 | CC[C@H](C)[C@H](N)C(=O)N[C@@H](CCC(N)=O)C(=O)N[C@@H](CCCNC(=N)N)C(=O)N[C@@H](CC(C)C)C(=O)N1CCC[C@H]1C(=O)N[C@H](C(=O)N[C@H](C(=O)N[C@H](C(=O)N[C@H](C(=O)N[C@@H](CC(C)C)C(=O)N1CCC[C@H]1C(=O)N[C@@H](CO)C(=O)N[C@@H](CC(C)C)C(=O)N[C@@H](Cc1ccc(O)cc1)C(=O)N[C@@H](CS)C(=O)N[C@H](C(=O)N[C@H](C(=O)N[C@@H](CS)C(=O)N[C@@H](CCCNC(=N)N)C(=O)N[C@H](C(=O)N[C@@H](CS)C(=O)O)[C@@H](C)O)[C@@H](C)CC)C(C)C)[C@@H](C)CC)C(C)C)[C@@H](C)CC)C(C)C [Peptide P14_CCH] (H-IQRLPVIVILPSLYCVICRTC-OH; N-terminus and C-terminus assumed) | >256 | >256 | >256 | >256 | >256 | –
4 | – | – | – | – | – | CC[C@H](C)[C@H](NC(=O)[C@H](CCCCN)NC(=O)[C@H](CCC(=O)O)NC(=O)[C@H](CCCCN)NC(=O)[C@H](CO)NC(=O)[C@H](CCCCN)NC(=O)[C@H](CCCNC(=N)N)NC(=O)[C@H](Cc1ccccc1)NC(=O)[C@H](Cc1ccccc1)NC(=O)[C@H](CC(=O)O)NC(=O)CNC(=O)[C@H](CC(C)C)NC(=O)[C@@H](N)CC(C)C)C(=O)NCC(=O)N[C@@H](CCCCN)C(=O)N[C@@H](CCC(=O)O)C(=O)N[C@@H](Cc1ccccc1)C(=O)N[C@@H](CCCCN)C(=O)N[C@@H](CCCNC(=N)N)C(=O)N[C@H](C(=O)N[C@H](C(=O)N[C@@H](CCC(N)=O)C(=O)N[C@@H](CCCNC(=N)N)C(=O)N[C@H](C(=O)N[C@@H](CCCCN)C(=O)N[C@@H](CC(=O)O)C(=O)N[C@@H](Cc1ccccc1)C(=O)N[C@@H](CC(C)C)C(=O)N[C@@H](CCCNC(=N)N)C(=O)N[C@@H](CC(N)=O)C(=O)N[C@@H](CC(C)C)C(=O)N[C@H](C(=O)N1CCC[C@H]1C(=O)N[C@@H](CCCNC(=N)N)C(=O)N[C@H](C(=O)N[C@@H](CCC(=O)O)C(=O)N[C@@H](CO)C(=O)O)[C@@H](C)O)C(C)C)[C@@H](C)CC)C(C)C)[C@@H](C)CC [LL37 + ve_AcOH, reference compound] | – | – | – | – | – | MBC ([3]; P. aeruginosa): >256 µg/mL; MIC ([3]; P. aeruginosa): >256 µg/mL
5 | >256 µg/mL | >256 | >256 µg/mL | >256 | >256 | SNRDFFKVNIFRLCG [Peptide P10_CCH, SNRDFFKVNIFRLCG] | >256 | >256 | >256 | >256 | >256 | –
6 | >256 µg/mL | >256 | >256 µg/mL | >256 | >256 | LRCPTPHYNFENGIGNHLMWNIIWLNAQQMSYKNK [Peptide P15_CCH] | >256 | >256 | >256 | >256 | >256 | –
7 | >256 µg/mL | >256 | >256 µg/mL | >256 | – | CC(C)C[C@H](NC(=O)[C@H](CS)NC(=O)[C@@H]1CCCN1C(=O)[C@H](CCCCN)NC(=O)[C@H](CCCNC(=N)N)NC(=O)[C@@H]1CCCN1C(=O)[C@H](Cc1ccccc1)NC(=O)[C@H](CO)NC(=O)[C@H](CCCCN)NC(=O)[C@@H](NC(=O)[C@H](Cc1c[nH]c2ccccc12)NC(=O)[C@H](CS)NC(=O)CNC(=O)[C@H](CO)NC(=O)[C@H](CC(C)C)NC(=O)[C@@H](N)CO)[C@@H](C)O)C(=O)N[C@@H](CCCNC(=N)N)C(=O)N[C@@H](CC(N)=O)C(=O)N[C@@H](CCCNC(=N)N)C(=O)O [HP3, SLSGCWTKSFPRKPCLRNR] (H-SLSGCWTKSFPRKPCLRNR-OH; N-terminus and C-terminus assumed) | >256 | – | >256 | >256 | >256 | inhibitory or bacteriostatic activity ([1]; E. coli): no effect; inhibitory or bacteriostatic activity ([3]; P. aeruginosa): no effect; inhibitory or bacteriostatic activity ([4]; S. aureus): no effect; inhibitory or bacteriostatic activity [5]: no effect
8 | 16 µg/mL | >256 | 4 µg/mL | – | 4 (≈ 1.51 µM) | CC[C@H](C)[C@H](NC(=O)[C@H](Cc1ccccc1)NC(=O)[C@@H]1CCCN1C(=O)[C@H](CC(C)C)NC(=O)[C@@H](N)Cc1ccccc1)C(=O)N[C@@H](C)C(=O)N[C@@H](CCCNC(=N)N)C(=O)N[C@@H](CC(C)C)C(=O)N[C@@H](C)C(=O)N[C@@H](C)C(=O)N[C@@H](CCCCN)C(=O)N[C@H](C(=O)N[C@@H](Cc1ccccc1)C(=O)N1CCC[C@H]1C(=O)N[C@@H](CO)C(=O)N[C@H](C(=O)N[C@H](C(=O)N[C@H]1CSSC[C@@H](C(=O)O)NC(=O)[C@H](CCCCN)NC(=O)[C@H](CCCCN)NC(=O)[C@H]([C@@H](C)O)NC(=O)[C@H](C(C)C)NC(=O)[C@H](CO)NC1=O)[C@@H](C)CC)[C@@H](C)CC)C(C)C [Peptide R4] (H-FLPFIARLAAKVFPSIICSVTKKC-OH; disulfide 18-24; N-terminus and C-terminus assumed) | 16 (≈ 6.03 µM) | 4 (≈ 1.51 µM) | >256 | 4 (≈ 1.51 µM) | – | –
9 | 48 µM | >256 | 97 µM | >256 | – | CC[C@H](C)[C@H](NC(=O)[C@H](CCCCN)NC(=O)[C@H](CS)NC(=O)[C@H](C)NC(=O)[C@@H](NC(=O)[C@H](Cc1ccccc1)NC(=O)CNC(=O)[C@H](CC(C)C)NC(=O)CNC(=O)[C@@H](NC(=O)[C@H](CCCCN)NC(=O)CNC(=O)[C@H](CC(C)C)NC(=O)[C@H](CC(N)=O)NC(=O)[C@H](CCCCN)NC(=O)[C@H](CC(C)C)NC(=O)[C@@H](NC(=O)[C@H](CO)NC(=O)[C@H](CC(C)C)NC(=O)[C@H](CCSC)NC(=O)[C@@H](N)CO)C(C)C)C(C)C)C(C)C)C(=O)N[C@@H](CC(N)=O)C(=O)N[C@@H](CCCCN)C(=O)N[C@@H](CCC(N)=O)C(=O)N[C@@H](CS)C(=O)O [HP4] (H-SMLSVLKNLGKVGLGFVACKINKQC-OH; N-terminus and C-terminus assumed) | – | – | >256 | – | >256 | MIC ([1]; E. coli, listed as H4): 128 µg/mL; inhibitory or bacteriostatic activity ([3]; P. aeruginosa): no effect; MIC ([4]; S. aureus, listed as H4): 256 µg/mL; inhibitory or bacteriostatic activity [5]: no effect
